Reference: patent US20230257715A1, “COMPOSITIONS AND METHODS FOR REGULATING ENTEROENDOCRINE CELL DIFFERENTIATION AND USES THEREOF” (The Children's Medical Center Corporation, priority 2020, published 2023)
“Also recorded” adds a separate entry of the source.

Test system: human duodenal enteroids
Test: Hormone ELISA (5HT, GIP) of enteroid conditioned media
Type: cell-based
Settings: last two days of differentiation
Protocol: Hormone quantification for GIP (MilliporeSigma, […]), GLP-1, PYY, and serotonin (Eagle Biosciences/DLD Diagnostika GmbH, SER39-KO1) and were performed using kits and following manufacturer's protocols. For these experiments, organoids were grown in 48-well plates to aid in concentrating the hormone of interest. Conditioned media was taken on day 14 of differentiation. For GIP quantification, Diprotin A (Tocris, 6019, 100 μM), a dipeptidyl peptidase 4 inhibitor, was added daily to the media for the last two days of differentiation to prevent GIP and GLP-1 degradation. For hormone induction studies, forskolin (Fsk) (10 μM) was added to fresh media 24-hours prior to conditioned media being taken. As an additional control, differentiation media not exposed to cells was also evaluated. This value was then subtracted from each experimental sample.

## CCn1cc(C(=O)O)c(=O)c2c(N)c(F)c(NC3CCCCC3)cc21 [AS, AS1842856]
  5HT secretion (ELISA of conditioned media): promoted serotonin (5HT) production and secretion; also recorded: higher levels of 5HT secretion than all other conditions
  GIP secretion (ELISA of conditioned media): no secretion of GIP
